# From US7476650B2, “Enzyme inhibition” (Yale University, priority 1999, dated 2009)
# Columns and labels:
# Type in all cases: biochemical
# [1] = molecular target: T1, PGPH activity of purified bovine erythrocyte 20S proteasome (Bos taurus, UniProt Q3MHN0); assay: Enzyme kinetic assay, PGPH activity (Z-LLE-AMC); details: for selectivity for the PGPH activity: in words, data not shown for Glu compounds; for kobs/[I] PGPH: Table 3; for kobs/[I] for PGPH activity using Z-LLE-AMC: Examples 9 and 10; for kinact/KI: pH 8, Table 4, inhibitor concentration range in parentheses, read-out: kassoc = kobs/[I] PGPH activity
# T1 construct: from tissue; host or cells: bovine erythrocytes (red blood cells)
# Method: We investigated the potency of inhibitors of various length. Mono-, di-,tri- and tetraleucine α′,β′-epoxides were ranked by determination of the kobs/[I] values for inhibition of the chymotrypsin-like, trypsin-like, and PGPH activities of purified bovine erythrocyte 20S proteasome. Enzyme kinetic assays were performed as described in Example 2.
# (§1) Purified bovine erythrocyte proteasome was enzymatically assayed using a variety of different substrates and inhibitors. In order to evaluate the rates of proteolytic inactivation by inhibitors, kassociation (kobs/[I]) values were determined using fluorogenic peptide substrates over a range of inhibitor concentrations.
# [2] = molecular target: T2, chymotrypsin-like activity of purified bovine erythrocyte 20S proteasome (Bos taurus, UniProt Q32KL2); assay: Enzyme kinetic assay, chymotrypsin-like activity (Suc-LLVY-AMC); details: for kobs/[I] Chymotrypsin-like: Table 3; for kobs/[I] for chymotryptic-like activity using Suc-LLVY-AMC: Examples 9 and 10, in M-1s-1; for kinact/KI: pH 8, Table 4, inhibitor concentration range in parentheses, read-out: kassoc = kobs/[I] Chymotrypsin-like activity
# T2 construct: from tissue; host or cells: bovine erythrocytes (red blood cells)
# Text: (§2) We investigated the potency of inhibitors of various length. Mono-, di-,tri- and tetraleucine α′,β′-epoxides were ranked by determination of the kobs/[I] values for inhibition of the chymotrypsin-like, trypsin-like, and PGPH activities of purified bovine erythrocyte 20S proteasome.
# as §1
# [3] = molecular target: T3, trypsin-like activity of purified bovine erythrocyte 20S proteasome (Bos taurus, UniProt Q2TBP0); assay: Enzyme kinetic assay, trypsin-like activity (Boc-LRR-AMC); details: for kobs/[I] for tryptic-like activity using Boc-LRR-AMC: Examples 9 and 10; for kinact/KI: pH 8, Table 4, inhibitor concentration range in parentheses, read-out: kassoc = kobs/[I] Trypsin-like activity
# T3 construct: from tissue; host or cells: bovine erythrocytes (red blood cells)
# Text: as §2, §1
Compound,kobs/[I] for tryptic-like activity using Boc-LRR-AMC [3],kobs/[I] for chymotryptic-like activity using Suc-LLVY-AMC [2],kobs/[I] for PGPH activity using Z-LLE-AMC [1],further results
"CC(=O)N1CCC[C@H]1C(=O)N[C@@H](Cc1ccccc1)C(=O)N[C@@H](CCC(=O)O)C(=O)[C@@]1(C)CO1 [Ac-Pro-Phe-Glu-α′,β′-epoxyketone]",,,,selectivity for the PGPH activity [1]: did not display any significant selectivity
CC(=O)N1CCC(C(=O)N2CCC[C@H]2C(=O)N[C@@H](Cc2ccccc2)C(=O)N[C@@H](CC(C)C)C(=O)[C@@]2(C)CO2)CC1 [N-acetyl-piperidinecarbonyl-PFL-Ex],,,,kobs/[I] Chymotrypsin-like [2]: 31.2 ± 0.6 M⁻¹ s⁻¹; kobs/[I] PGPH [1]: 45.3 ± 2.2 M⁻¹ s⁻¹
CC(=O)N[C@@H](CC(C)C)C(=O)N[C@@H](CC(C)C)C(=O)N[C@@H](Cc1cccc2ccccc12)C(=O)N[C@@H](CC(C)C)C(=O)[C@@]1(C)CO1 [P2 1-naphthyl],not measurable,"29,000",not measurable,
CC(=O)N[C@@H](CC(C)C)C(=O)N[C@@H](Cc1cccc2ccccc12)C(=O)N[C@@H](CC(C)C)C(=O)N[C@@H](CC(C)C)C(=O)[C@@]1(C)CO1 [P3 1-naphthyl],not measurable,"31,000",not measurable,
CC(C)C[C@H](NC(=O)[C@@H](N)CCc1ccccc1)C(=O)N[C@@H](Cc1ccccc1)C(=O)N[C@@H](CC(C)C)C(=O)[C@@]1(C)CO1 [compound 18],580 M⁻¹ s⁻¹,5200,,kinact/KI [3]: 580 M⁻¹ s⁻¹; kinact/KI [2]: 5200 M⁻¹ s⁻¹; kinact/KI [1]: 11 M⁻¹ s⁻¹
"CC(C)[C@H](O)[C@@]12NC(=O)[C@H](C)[C@@H]1OC2=O [drawing 17, reference compound]",,,,kinact/KI [3]: 68 M⁻¹ s⁻¹; kinact/KI [2]: 7400 M⁻¹ s⁻¹; kinact/KI [1]: 47 M⁻¹ s⁻¹
CC(C)C[C@H](NC(=O)[C@H](Cc1ccccc1)NC(=O)c1cnccn1)B(O)O [reference compound],,,,kinact/KI [2]: 53000 M⁻¹ s⁻¹; kinact/KI [1]: 3200 M⁻¹ s⁻¹
CC(C)C[C@@H](/C=C/S(C)(=O)=O)NC(=O)[C@H](CC(C)C)NC(=O)[C@H](CC(C)C)NC(=O)Cc1cc(N)c(O)c(I)c1 [reference compound],,,,kinact/KI [3]: 3.4 M⁻¹ s⁻¹; kinact/KI [2]: 5000 M⁻¹ s⁻¹; kinact/KI [1]: 4 M⁻¹ s⁻¹
"isooctanoyl-Ser-Glu-α′,β′-epoxyketone",,,,selectivity for the PGPH activity [1]: poor PGPH-selective inhibitors
"isooctanoyl-Ser-Leu-α′,β′-epoxyketone [Eponemycin, reference compound]",,,,kobs/[I] Trypsin-like ([3]; Table 3): 17 ± 3 M⁻¹ s⁻¹; kobs/[I] Chymotrypsin-like [2]: 58 ± 14 M⁻¹ s⁻¹; kobs/[I] PGPH [1]: 175 ± 2 M⁻¹ s⁻¹; selectivity for the PGPH activity [1]: modest selectivity toward the PGPH activity
"isooctanoyl-Thr-Glu-α′,β′-epoxyketone",,,,selectivity for the PGPH activity [1]: poor PGPH-selective inhibitors

# The next lines start with results.
kobs/[I] for tryptic-like activity using Boc-LRR-AMC [3],kobs/[I] for chymotryptic-like activity using Suc-LLVY-AMC [2],kobs/[I] for PGPH activity using Z-LLE-AMC [1],Compound,further results
not measurable,"29,000",not measurable,CC(=O)N[C@@H](Cc1cccc2ccccc12)C(=O)N[C@@H](CC(C)C)C(=O)N[C@@H](CC(C)C)C(=O)N[C@@H](CC(C)C)C(=O)[C@@]1(C)CO1 [P4 I -naphthyl],
5.4 M⁻¹ s⁻¹,"63,000",50,CC(=O)N[C@@H](CCc1ccccc1)C(=O)N[C@@H](CC(C)C)C(=O)N[C@@H](CC(C)C)C(=O)N[C@@H](CC(C)C)C(=O)[C@@]1(C)CO1 [P4 methylphenyl],
not measurable,"23,000",not measurable,CC(=O)N[C@@H](Cc1ccc(C(=O)c2ccccc2)cc1)C(=O)N[C@@H](CC(C)C)C(=O)N[C@@H](CC(C)C)C(=O)N[C@@H](CC(C)C)C(=O)[C@@]1(C)CO1 [P4 p-benzoylphenyl],
5.5 M⁻¹ s⁻¹,"37,000",78,CC(=O)N[C@@H](Cc1ccccc1)C(=O)N[C@@H](CC(C)C)C(=O)N[C@@H](CC(C)C)C(=O)N[C@@H](CC(C)C)C(=O)[C@@]1(C)CO1 [P4 phenyl],
